Laboratory results as given in patent publication US12504371B2, “System and method of dynamic micro-optical coherence tomography for mapping cellular functions” (The General Hospital Corporation, priority 2020, dated 2025).

Tests used:
[1] = test system: freshly excised murine liver; experiment: d-μOCT imaging of freshly excised murine liver in blebbistatin; type: cell-based; conditions: 30 μM blebbistatin, t=40 minutes vs t=0; Red 0-0.08 Hz, Green 3.98-20 Hz
Excerpt: d-μOCT enables high contrast, subcellular, cross-sectional motility imaging of intact human and animal tissues ex vivo. d-μOCT data (FIGS. 7, 9-16) were obtained using a μOCT benchtop system microscope that employs a supercontinuum-illuminated, common path, spectral domain OCT (SDOCT) system to obtain cross-sectional images with a resolution of 2 μm×2 μm (lateral)×1 μm (axial). The depth of focus was 300 μm, extended by annular apodization of the sample arm's objective lens. Images were acquired at an A-line (depth resolved reflectivity profile) rate of 20 KHz and spanned 1 mm laterally. All tissues samples were imaged fresh in culture media (10% FBS/DMEM+1% pen-strep) at 25° C. Two scan modes were used: 1) N=1000 images (512 A-lines/image) acquired sequentially over a period of 25 seconds (FIG. 8, scan mode 1) or 2) N=1000 A-lines acquired sequentially at each lateral scan point (FIG. 8, scan mode 2). Following local elastic unwarping to remove bulk motion caused by evaporation or vibration, a power spectrum estimate (periodogram) was computed on a pixel-per-pixel basis using Welch's method and frequency normalization. For scan mode 1, to represent the data in a single image, low (−0-0.1 Hz), middle (−0.5-0.7 Hz) and high (−4-20 Hz) frequency component images were merged into the RGB channels of a 24-bit color image. […]

MC38 murine tumor = experiment: d-μOCT and CC3 IHC of freshly excised MC38 tumor treated with a drug-containing IMD; type: in vivo; conditions: IMD containing doxorubicin, 6 hrs; mid frequency Blue 0.47-0.63 Hz
Experimental: Dynamic-μOCT has been applied to human biopsies and chemotherapy-treated tumors grown in mouse models. In human biopsies, it is possible to use d-μOCT to distinguish microscopic features (e.g. cell nuclei, organelles, and cell membranes), cellular structures (e.g. squamous, glandular, inflammatory cells), and different cell types that were not evident in corresponding regular μOCT images. Ex vivo experiments were also performed using tumors grown with human cell lines. Custom microdevices containing small amounts of chemotherapeutic drugs were inserted into the tumors. For example, effects of intra-tumoral apoptosis were distinguished with d-μOCT and confirmed with histology images stained with cleaved caspase-3 (CC3), an apoptosis marker.
Panel (B) is from the same location in the sample. d-μOCT color codes: Red 0-0.08 Hz, Blue 0.47-0.63 Hz, Green 3.98-20 Hz. Bars, 200 μm.
d-μOCT enables high contrast, subcellular, cross-sectional motility imaging of intact human and animal tissues ex vivo. d-μOCT data (FIGS. 7, 9-16) were obtained using a μOCT benchtop system microscope that employs a supercontinuum-illuminated, common path, spectral domain OCT (SDOCT) system to obtain cross-sectional images with a resolution of 2 μm×2 μm (lateral)×1 μm (axial). The depth of focus was 300 μm, extended by annular apodization of the sample arm's objective lens. […]

Cc1ccc2c(c1)C(=O)C1(O)CCN(c3ccccc3)C1=N2 (centres unmarked) [blebbistatin]
change in d-μOCT intracellular motion frequency content [1]: dramatic reduction in high frequency (green) and increase in low frequency (red) intracellular motion

COc1cccc2c1C(=O)c1c(O)c3c(c(O)c1C2=O)C[C@@](O)(C(=O)CO)C[C@@H]3O[C@H]1C[C@H](N)[C@H](O)[C@H](C)O1 [doxorubicin]
d-μOCT frequency content compared with cleaved caspase-3 (CC3) IHC (MC38 murine tumor): diffuse region of mid-frequency content (arrow) that mirrors cleaved caspase-3 (CC3) IHC
